In one assay the test system is Wistar rats. Put plainly: Schedule-induced polydipsia. In kind it is in vivo, rat. The text has this: Food-deprived rats exposed to intermittent presentations of food will drink amounts of water that are far in excess of their normal daily intake and in excess of their intake when given all of their food at one time (Falk J L. “Production of polydipsia in normal rats by an intermittent food schedule”, Science 133: 195-196, (1961)). This excessive behavior is persistent and has been used to model OCD.
Maintain Wistar rats on a food restricted diet (to maintain 85% free feeding weight), but with free access to water. Train the rats in a behavioral testing chamber to press a lever to receive a food pellet under a fixed interval schedule, such that the rats are rewarded with a 45 mg food pellet the first time they press a lever after a 120 second interval has elapsed. The fixed interval is then reset to 120 seconds and the process repeated. Thus, during a 90 min. test session, the rats can earn a maximum of 45 pellets. The behavioral chamber is also equipped with a water bottle that is weighed before and after the session to determine the amount of water consumed.
Administer test compounds on Tuesdays and Fridays. Determine control day performances on Thursdays. Administer compounds either orally at 60 min. before the beginning of a test session, or subcutaneously at 20 min. before the beginning of a test session. Compare the rates of lever pressing and water consumption for each animal's performance during sessions after test compound treatment with that animal's performance during control sessions, expressed as a percent of the control rate. Average the individual percent of control rates for each dose and calculate the standard error of the mean.
The in vivo efficacy of 5HT2C compounds at the 5HT2C receptor was confirmed by the prevention of effects of the 5HT2C agonists on excessive drinking by co-administration of the 5HT2C receptor antagonist, 6-chloro-5-methyl-N-(2-(2-methylpyridin-3-yl-oxy)pyridin-5-yl)aminocarbonyl)-2,3-dihydroindole.

The next assay concerns the target D2 dopaminergic receptor (Homo sapiens, UniProt P14416). The assay is described as follows: Radioligand receptor binding assay, D2 dopaminergic.
The subject of another assay is male Long-Evans rats. The assay is described as follows: Acute feeding assay with a selective 5-HT2C receptor antagonist. In kind it is in vivo, rat. The conditions noted are these: antagonist 3 mg/Kg subcutaneous about 15 min. before oral test compound. The text has this:
Animals: Obtain male Long-Evans rats (Harlan Sprague-Dawley, Indianapolis, Ind.) that are approximately one hundred-days old and have been maintained on a calorie rich diet since weaning (TD 95217, 40% calories from fat; Teklad, Madison, Wis.). House the rats individually with a 12 hr.:12 hr. light:dark cycle (lights on from about 22:00 hr. to about 10:00 hr.) and maintain rats on the same diet (TD 95217) with free access to water, for about 1-2 weeks to acclimate the rats to the environment. Dose rats orally with vehicle (10% acacia with 0.15% saccharin in water) once daily for at least 1 day (typically 1-2 days) to acclimate the rats to the procedures. Randomize the rats into groups so each group has similar mean body weights.
Acute Feeding Assay with a selective 5-HT2C receptor antagonist: The above calorimetric acute feeding assay is conducted with the following modifications. Open circuit calorimetry systems are not used and only the 24 hr. periodic food intake and body weight are measured. […]

The next assay deals with T1, 5-HT2C receptor (Homo sapiens, UniProt P28335).
T1 sequence (P28335 33-458): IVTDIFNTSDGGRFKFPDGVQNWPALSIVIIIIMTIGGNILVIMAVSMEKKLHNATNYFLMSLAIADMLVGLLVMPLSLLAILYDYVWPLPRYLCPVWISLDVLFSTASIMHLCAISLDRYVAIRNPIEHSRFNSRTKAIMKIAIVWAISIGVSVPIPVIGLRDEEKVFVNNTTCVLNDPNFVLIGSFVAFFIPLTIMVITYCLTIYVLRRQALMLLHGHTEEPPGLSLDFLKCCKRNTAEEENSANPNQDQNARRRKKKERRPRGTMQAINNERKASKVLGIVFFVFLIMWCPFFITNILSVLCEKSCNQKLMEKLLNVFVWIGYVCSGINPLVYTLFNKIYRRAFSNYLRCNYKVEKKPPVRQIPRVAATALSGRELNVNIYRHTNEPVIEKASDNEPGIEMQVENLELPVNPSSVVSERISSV
The assay is described as follows: G alpha q-GTPγ[35S] binding agonist activity assay (ISPA), 5-HT2C. Also noted: expressed in transfected cells; host or cells: AV12 cells. The format is biochemical. In general terms: GTPγS is a poorly hydrolysed GTP analogue; its binding reports G protein activation.

Bounds are passed on as bounds.

D2 dopaminergic receptor, sequence (P14416 whole entry): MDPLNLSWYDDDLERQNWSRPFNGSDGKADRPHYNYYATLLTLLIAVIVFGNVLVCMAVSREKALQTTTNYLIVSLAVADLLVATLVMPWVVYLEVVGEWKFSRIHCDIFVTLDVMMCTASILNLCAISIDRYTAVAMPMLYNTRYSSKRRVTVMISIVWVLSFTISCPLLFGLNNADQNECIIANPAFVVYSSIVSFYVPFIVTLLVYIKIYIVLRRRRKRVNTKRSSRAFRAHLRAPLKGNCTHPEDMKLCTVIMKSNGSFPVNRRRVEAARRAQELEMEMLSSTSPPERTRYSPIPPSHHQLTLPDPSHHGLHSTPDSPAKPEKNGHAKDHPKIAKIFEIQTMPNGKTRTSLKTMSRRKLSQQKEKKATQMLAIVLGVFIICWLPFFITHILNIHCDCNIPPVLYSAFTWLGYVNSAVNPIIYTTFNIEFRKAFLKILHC

As a reminder, the IC50 is the concentration at which inhibition is half-maximal. Lower therefore signals greater potency. As a reminder, the EC50 is the concentration that produces a half-maximal response. For orientation: Emax means the size of the effect at its maximum, as opposed to the concentration needed. For `FC(F)(F)CNc1c(Cl)ccc2c1CCNCC2.O=C(O)CCC(=O)O` [Example 2, 7-Chloro-6-(2,2,2-trifluoroethylamino)-2,3,4,5-tetrahydro-1H-benzo[d]azepine Succinic Acid Salt], the “schedule-induced polydipsia (excessive drinking)” value in the assay with Wistar rats (food restricted rats, 90 min. test session) is on record as “suppress schedule-induced polydipsia without producing notable changes in motor patterns, food intake, or behavior the following day”. The “suppression of excessive drinking with co-administration of the 5-HT2C receptor antagonist” value with Wistar rats (rats) is listed as “blocked”. The compound further registered a half-maximal inhibitory concentration (IC50) at D2 dopaminergic receptor of over 3000 nM. Moreover, the “effect on 24 hr. food intake after pre-administration of the 5-HT2C receptor antagonist” value with male Long-Evans rats was “blocked”. Besides, a half-maximal effect on 5-HT2C receptor (EC50) was put at 11.8 ± 2.8 nM. The “AUC 2C/2A Selectivity Ratio” value on 5-HT2C receptor (ratio of AUCs normalized to 5-HT, 5-HT2C receptor/5-HT2A receptor) is reported as 2.2. Also, the “AUC 2C/2B Selectivity Ratio” value on 5-HT2C receptor (ratio of AUCs normalized to 5-HT, 5-HT2C receptor/5-HT2B receptor) is listed as 3.8. For the same compound, the Emax at 5-HT2C receptor (read-out: 5HT2C Emax) was 106 ± 2.8%.

These data come from US20060264418A1, “6-(2,2,2-Trifluoroethylamino-7-chloro-2,3,4,5-tetrahydro-1h-benzo[d] azephine as a 5-ht2c receptor agonist” (priority 2003, published 2006).
